ChEMBL document CHEMBL1201862, “PubChem BioAssay data set” (2004)
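Protocol summary: plate cells (96-well), add compound at 5 concentrations, incubate 48 h, interpolate endpoints linearly. GI50 = concentration required for 50% inhibition of growth.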 The source made the active and inactive calls. Cut-off read from the data, not from the text of the source: active = GI50 up to about 1.1 µM and inactive = higher.

Columns and labels:
Experiment in all cases: NCI tumour cell line growth inhibition, 48 h
A498 = test system: A498
A549 = test system: A549
CAKI-1 = test system: CAKI-1
CCRF-CEM = test system: CCRF-CEM
HCC 2998 = test system: HCC 2998
HCT-116 = test system: HCT-116
HOP-62 = test system: HOP-62
K562 = test system: K562
MOLT-4 = test system: MOLT-4
NCI-H23 = test system: NCI-H23
NCI/ADR-RES = test system: NCI/ADR-RES
OVCAR-3 = test system: OVCAR-3
OVCAR-4 = test system: OVCAR-4
RPMI-8226 = test system: RPMI-8226
SF-295 = test system: SF-295
SK-MEL-5 = test system: SK-MEL-5
ACHN = test system: ACHN
MDA-MB-435 = test system: MDA-MB-435
Malme-3M = test system: Malme-3M
SR = test system: SR

Measured: GI50

CCCNC(=O)C(C)C1CCC2(C)C=CC(=O)C(C)=C2C1O (centres undefined)
inactive: A498 > 100 µM | A549 > 100 µM | CAKI-1 > 100 µM | CCRF-CEM > 100 µM | HCC 2998 > 100 µM | HCT-116 > 100 µM | HOP-62 > 100 µM | K562 > 100 µM | MOLT-4 > 100 µM | NCI-H23 > 100 µM | NCI/ADR-RES > 100 µM | OVCAR-3 > 100 µM | OVCAR-4 > 100 µM | RPMI-8226 > 100 µM | SF-295 > 100 µM | SK-MEL-5 > 100 µM

O=C1OC(c2ccccc2Br)=N/C1=C/c1ccccc1
inactive: A498 > 100 µM | A549 29.6 µM | ACHN 27.5 µM | CAKI-1 35.2 µM | CCRF-CEM 35 µM | HCC 2998 19.1 µM | HCT-116 37.2 µM | HOP-62 21.5 µM | K562 63 µM | MDA-MB-435 29.2 µM | MOLT-4 48.8 µM | Malme-3M 19.6 µM | NCI-H23 32.8 µM | OVCAR-3 14.1 µM | OVCAR-4 25.4 µM | RPMI-8226 33.1 µM | SF-295 34.1 µM | SK-MEL-5 35.2 µM | SR 27 µM

CCNCCCCNCC
inactive: A498 > 3750 µM | A549 > 3750 µM | CAKI-1 > 3750 µM | CCRF-CEM 1600 µM | HCC 2998 > 2670 µM | HCT-116 > 2480 µM | HOP-62 > 3750 µM | K562 > 3750 µM | MOLT-4 1390 µM | Malme-3M > 3750 µM | NCI-H23 > 3750 µM | NCI/ADR-RES > 3750 µM | OVCAR-3 > 3750 µM | OVCAR-4 > 3750 µM | RPMI-8226 > 3750 µM | SF-295 > 3750 µM | SK-MEL-5 > 3750 µM

NC(Cc1cc(I)c(O)c(I)c1)C(=O)O (centres undefined)
inactive: A498 > 500 µM | A549 > 500 µM | CAKI-1 45.4 µM | CCRF-CEM 255 µM | HCC 2998 > 500 µM | HCT-116 470 µM | HOP-62 > 500 µM | K562 > 500 µM | MOLT-4 401 µM | Malme-3M > 500 µM | NCI-H23 > 287 µM | NCI/ADR-RES > 316 µM | OVCAR-3 > 500 µM | OVCAR-4 211 µM | RPMI-8226 > 500 µM | SF-295 > 500 µM | SK-MEL-5 > 500 µM
